# Laboratory results taken from patent publication US20230233592A1, “PHARMACEUTICAL COMPOSITION FOR THE CHEMICAL INHIBITION OF TGS1 IN THE THERAPEUTIC TREATMENT OF TELOMEROPATHIES” (priority 2020, published 2023).
# “Also recorded” adds a separate entry of the source. Like-named read-outs stand apart in the source and are kept apart here.
# Experiments:
# [1] = biological target: T1, recombinant TGS1 enzyme fused to protein GST (Homo sapiens, UniProt Q96RS0); test: In vitro hypermethylation assay with recombinant GST-TGS1 enzyme; assay type: biochemical; conditions: Sinefungin 100 μM; 50 μM [3H-CH3]AdoMet; 5 mM m7GTP
# T1 construct: made in house; host or cells: bacterial cells
# Description: Sinefungin, analogous of S-adenosyl-methionine, inhibits the reaction of hypermethylation catalyzed by TGS1. (A) In vitro assay of hypermethylation performed by incubating 1 μg of recombinant GST-TGS1 or GST with 50 μM [^3H—CH3]AdoMet (SAM) and with 5 mM m^7GTP (MMG), in presence or not of 100 μM Sinefungin. Aliquots of the reaction mixture are placed on cellulose-polyethyleneimine and the reaction products are resolved by means of TLC. The incorporation of ^3H—CHs in the methylated derivatives of MMg (DMG or TMG) is quantified by means of liquid scintillation counting. (B) Control reactions performed without protein or GST. (C) The entity of transfer of ^3H-methyl to the dinucleotide cap is shown. The Sinefungin capability of inhibiting the methyl-transferase activity of TGS1 enzyme was evaluated by means of recombinant in vitro hypermethylation assay by using recombinant TGS1 enzyme fused to protein GST. After having purified TGS1-GST from bacterial cells, still immobilized on glutathione beads, or GST alone, the assay was performed in presence or absence of Sinefungin, by using [^3H—CH3]AdoMet as methyl donor and m^7GTP (MMG) as substrate.
# [2] = high doses, goats; cited from earlier work
# [3] = biological target: T2, SET7/9 lysine methyltransferase (Mus musculus, UniProt Q8VHL1); conditions: murine model for renal fibrosis; cited from earlier work
# T2 construct: host or cells: murine model of renal fibrosis
# T2 sequence (Q8VHL1 1-366): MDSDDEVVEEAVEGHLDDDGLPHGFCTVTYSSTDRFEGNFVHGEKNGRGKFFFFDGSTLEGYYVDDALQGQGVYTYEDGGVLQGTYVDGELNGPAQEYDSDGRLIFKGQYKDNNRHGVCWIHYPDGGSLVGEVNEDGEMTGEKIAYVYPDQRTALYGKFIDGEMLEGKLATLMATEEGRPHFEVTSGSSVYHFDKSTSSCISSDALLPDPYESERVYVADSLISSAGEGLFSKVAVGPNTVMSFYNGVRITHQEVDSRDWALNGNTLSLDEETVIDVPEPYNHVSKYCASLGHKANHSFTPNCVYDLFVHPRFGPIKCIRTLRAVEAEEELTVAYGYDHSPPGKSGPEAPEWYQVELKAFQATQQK
# [4] = biological target: RNA hypermethylase TGS1 (Homo sapiens, UniProt Q96RS0); conditions: Yedavalli & Jeang 2010; cited from earlier work
# [5] = test system: fungal cap methyltransferase enzyme; conditions: Chrebet et al. 2005; cited from earlier work
# [6] = high doses, dogs; cited from earlier work
# [7] = test system: UMUC3 cells; test: qRT-PCR analysis of hTR levels in UMUC3 cells; assay type: cell-based, human; conditions: Sinefungin 100 μM for 10 days
# Description: (A, E) qRT-PCR analysis of levels of hTR on RNA of UMUC3 cells (A) or of the cell line HeLa PARN KO (E), treated or not with 50 μM Sinefungin for 10 days. The bars represent the variation in the levels of hTR in the treated cells and in the not treated cells, obtained by three replicates. The effects of Sinefungin were tested on the tumour cell line of UMUC3 bladder, characterized by limiting levels of hTR for the activity telomerase and by short telomeres (Xu L. & Blackburn E. H. Mol Cell 28, 2007). The UMUC3 cells were treated with Sinefungin 100 μM for 10 days, and then the levels of RNA hTR were determined. […] In order to confirm that Sinefungin is capable of striking specifically the TGS1 enzyme, a treatment with Sinefungin was tested on clones of UMUC3 cells, characterized by CRISPR-induced mutations in TGS1 (Chen et al.) (FIG. 3C), inside thereof there is a lengthening of the telomeres over time due to a deficiency of TGS1 (FIG. 3D). Control cells and mutant cells were cultivated for 46 days in presence or absence of Sinefungin.
# [8] = test system: UMUC3 cells; test: Telomere Restriction Fragment (TRF) analysis in TGS1-proficient UMUC3 cells; assay type: cell-based, human; conditions: TGS1-proficient UMUC3 cells cultivated with Sinefungin, over 15 population doublings / 46 days
# Description: (B,D,F) Determination of the telomeric length by means of Telomere Restriction Fragment analysis (TRF, performed according to the methods described in Roake, C. M. et al. Mol Cell 74, 2019) in two cell types characterized by short telomeres: the UMUC3 tumour cell line and the HeLa cells lacking in TGS1 or deadenylase PARN. […] No lengthening of telomeres in the not-treated parental cells is observed (lanes 9-10). The effects of Sinefungin were tested on the tumour cell line of UMUC3 bladder, characterized by limiting levels of hTR for the activity telomerase and by short telomeres (Xu L. & Blackburn E. H. Mol Cell 28, 2007). The UMUC3 cells were treated with Sinefungin 100 μM for 10 days, and then the levels of RNA hTR were determined. […] In order to confirm that Sinefungin is capable of striking specifically the TGS1 enzyme, a treatment with Sinefungin was tested on clones of UMUC3 cells, characterized by CRISPR-induced mutations in TGS1 (Chen et al.) (FIG. 3C), inside thereof there is a lengthening of the telomeres over time due to a deficiency of TGS1 (FIG. 3D). Control cells and mutant cells were cultivated for 46 days in presence or absence of Sinefungin.
# [9] = test system: HeLa PARN KO cells; test: qRT-PCR analysis of hTR levels in HeLa PARN KO cells; assay type: cell-based, human; conditions: 50 μM Sinefungin, 10 days
# Description: (A, E) qRT-PCR analysis of levels of hTR on RNA of UMUC3 cells (A) or of the cell line HeLa PARN KO (E), treated or not with 50 μM Sinefungin for 10 days. The bars represent the variation in the levels of hTR in the treated cells and in the not treated cells, obtained by three replicates. The effects of Sinefungin were tested on mutant HeLa cells for PARN deadenylase (PARN KO) enzyme, one of the causative factors of congenital dyskeratosis (Tummala et al., 2015) (Roake C. M. et al. Mol cell 74, 2019). PARN KO cells, obtained in the laboratory of […] (Stanford University), are characterized by short telomeres, due to the reduced levels of RNA component of telomerase.
# [10] = test system: Toxoplasma gondii; conditions: mice infected with Toxoplasma gondii; cited from earlier work
# [11] = test system: Leishmania; conditions: cited from earlier work
# [12] = test system: HeLa PARN KO cells; test: Telomere Restriction Fragment (TRF) analysis in HeLa PARN KO cells; assay type: cell-based, human; conditions: 50 μM Sinefungin, 46 days
# Description: (B,D,F) Determination of the telomeric length by means of Telomere Restriction Fragment analysis (TRF, performed according to the methods described in Roake, C. M. et al. Mol Cell 74, 2019) in two cell types characterized by short telomeres: the UMUC3 tumour cell line and the HeLa cells lacking in TGS1 or deadenylase PARN. (F) HeLa PARN KO cells were treated or not with 50 μM of Sinefungin for the period of time indicated in culture. Due to the reduced levels of RNA component of telomerase, the average telomeric length is shorter in the PARN KO cells (lane 13) rather than in the parental HeLa cell line. (4.5 kb vs 7.5 kb). […] The effects of Sinefungin were tested on mutant HeLa cells for PARN deadenylase (PARN KO) enzyme, one of the causative factors of congenital dyskeratosis (Tummala et al., 2015) (Roake C. M. et al. Mol cell 74, 2019). PARN KO cells, obtained in the laboratory of […] (Stanford University), are characterized by short telomeres, due to the reduced levels of RNA component of telomerase.
# Chain of RNA hypermethylase TGS1 (Q96RS0 whole entry): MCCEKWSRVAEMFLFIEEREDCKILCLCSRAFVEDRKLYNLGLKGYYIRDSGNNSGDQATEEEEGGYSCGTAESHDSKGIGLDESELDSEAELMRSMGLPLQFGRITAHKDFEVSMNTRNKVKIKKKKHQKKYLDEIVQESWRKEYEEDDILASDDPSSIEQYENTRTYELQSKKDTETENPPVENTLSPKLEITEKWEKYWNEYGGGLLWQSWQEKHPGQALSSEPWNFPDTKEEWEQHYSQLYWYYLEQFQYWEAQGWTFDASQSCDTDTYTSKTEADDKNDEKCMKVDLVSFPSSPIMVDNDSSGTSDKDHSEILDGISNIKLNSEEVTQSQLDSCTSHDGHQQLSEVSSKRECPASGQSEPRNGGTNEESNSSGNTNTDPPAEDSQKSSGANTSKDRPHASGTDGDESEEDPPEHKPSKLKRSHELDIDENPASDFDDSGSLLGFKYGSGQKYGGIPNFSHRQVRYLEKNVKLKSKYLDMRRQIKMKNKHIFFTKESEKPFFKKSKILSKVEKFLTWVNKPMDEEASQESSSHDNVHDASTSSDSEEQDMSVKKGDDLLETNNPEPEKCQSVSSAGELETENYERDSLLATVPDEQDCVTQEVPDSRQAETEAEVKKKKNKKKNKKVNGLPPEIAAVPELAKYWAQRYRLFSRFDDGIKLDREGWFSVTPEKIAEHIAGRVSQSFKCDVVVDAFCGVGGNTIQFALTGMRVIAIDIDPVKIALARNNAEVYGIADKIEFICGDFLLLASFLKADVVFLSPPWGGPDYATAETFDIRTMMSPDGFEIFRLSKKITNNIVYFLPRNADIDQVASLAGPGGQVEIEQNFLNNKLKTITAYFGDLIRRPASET
# T1 sequence (Q96RS0 whole entry, the tested form may be a part): as the sequence (Q96RS0 whole entry) above
substance,measurement,setting,value
Sinefungin,"methyl-transferase activity of TGS1 (3H-methyl transfer to m7GTP, TLC / liquid scintillation)",[1],inhibit the methyl-transferase activity of TGS1
same,nephrotoxicity,[2],nephrotoxic effects were detected
same,renal fibrosis pathology,[3],an improvement in the pathology
same,inhibition of TGS1 in human cells,[4],inhibits RNA hypermethylase TGS1
same,inhibition of fungal cap methyltransferase with respect to the human ortholog,[5],ten times more effectively
same,nephrotoxicity,[6],nephrotoxic effects were detected
same,increase in the levels of hTR,[7],1.5 times
same,telomere length (TRF),[8],A lengthening of telomeres takes place in the treated control cells; also recorded: a lengthening of the telomeres was observed
same,levels of hTR,[9],a significative increase in the levels of hTR
same,survival of infected mice,[10],increased the survival of mice
same,survival of infected mice,[11]; mice infected with various isolates of Leishmania,increased the survival of mice
same,toxic effects in infected mice,"[11]; mouse, in vivo",without showing clinically detectable toxic effects
same,telomere length (TRF),[12],a lengthening of telomeres; also recorded: a substantial increase in the telomere length
